Data published in patent US7569517B2, “4-biphenyl-substituted pyrazolidin-3 5-diones pesticide agent and/or microbicide and/or herbicide” (Bayer CropScience AG, priority 2003, dated 2009).

Tests used:
Format in all cases: in vivo
[1] = tested on: greenhouse red spider mite (Tetranychus urticae); test: Tetranychus test (OP-resistance/spray treatment) (Example E); conditions: 100 g/ha; sprayed bean leaf discs
Protocol: Tetranychus Test (OP-resistance/Spray Treatment)
• Solvents: 78 parts by weight of acetone • 1.5 parts by weight of dimethylformamide • Emulsifier: 0.5 part by weight of alkylaryl polyglycol ether
To prepare a suitable preparation of active compound, 1 part by weight of active compound is mixed with the stated amounts of solvents and emulsifier, and the concentrate is diluted with emulsifier-containing water to the desired concentration.
Discs of bean leaves (Phaseolus vulgaris) which are infested by all stages of the greenhouse red spider mite (Tetranychus urticae) are sprayed with a preparation of active compound of the desired concentration.
After the desired period of time, the activity in % is determined. 100% means that all spider mites have been killed; 0% means that none of the spider mites have been killed.

[2] = tested on: monocotyledonous and dicotyledonous weed and crop plants; test: Herbicidal pre-emergence action (Example G); conditions: greenhouse, 320 g of a.i./ha
Source text: Herbicidal Pre-emergence Action
Seeds of monocotyledonous and dicotyledonous weed and crop plants are placed into sandy loam in wood fibre pots and covered with soil. The test compounds, formulated in the form of wettable powders (WP), are then, in various dosages as aqueous suspension with a water application rate of 600 l/ha (converted), with 0.2% of wetting agent added, applied to the surface of the covering soil. After the treatment, the pots are placed in a greenhouse and kept under good growth conditions for the test plants. The visual assessment of the emergence damage on the test plants is carried out after a trial period of 3 weeks by comparison with untreated controls (herbicidal effect in percent (%): 100% effect=the plants have died, 0% effect=like control plants).

[3] = tested on: monocotyledonous and dicotyledonous weed and crop plants; test: Herbicidal post-emergence action (Example H); conditions: greenhouse, 320 g of a.i./ha
Protocol: (§1) Herbicidal Post-emergence Action
Seeds of monocotyledonous and dicotyledonous weed and crop plants are placed into sandy loam in wood fibre pots, covered with soil and cultivated in a greenhouse under good growth conditions. 2-3 weeks after sowing, the test plants are treated at the one-leaf stage. The test compounds, formulated as wettable powders (WP), are, in various dosages with a water application rate of 600 l/ha (converted), with 0.2% of wetting agent added, sprayed onto the green parts of the plants. After the test plants were kept in a greenhouse under optimum growth conditions for about 3 weeks, the effect of the preparations is rated visually in comparison to untreated controls (herbicidal effect in percent (%): 100% effect=the plants have died, 0% effect=like control plants).

[4] = tested on: monocotyledonous and dicotyledonous weed and crop plants (cereals); test: Herbicidal post-emergence action, use of safeners, container trials with cereals in the greenhouse (Example I); conditions: without safener
Protocol: as §1
Seeds of monocotyledonous and dicotyledonous weed and crop plants are placed into sandy loam in wood fibre pots or in plastic pots, covered with soil and cultivated in a greenhouse, during the vegetation period also outdoors outside of the greenhouse, under good growth conditions. 2-3 weeks after sowing, the test plants are treated at the one- to three-leaf stage. The test compounds, formulated as wettable powders (WP), or emulsifiable concentrates (EC), are, in various dosages with a water application rate of 300 l/ha (converted), with wetting agent (0.2 to 0.3%) added, sprayed onto the plants and the surface of the soil. 3-4 weeks after the treatment of the test plants, the effect of the preparations is rated visually in comparison to untreated controls (herbicidal effect in precent (%): 100% effect=the plants have died, 0% effect=like control plants).
If it is additionally to be tested whether safeners can improve the plant compatibility of test substances in the case of the crop plants, the following option is used for applying the safener: • seeds of the crop plants are, before sowing, dressed with the safener substance (the amount of safener is stated in percent, based on the weight of seed) • before the application of the test substances, the crop plants are sprayed with the safener at a certain application rate per hectare (usually 1 day before the application of the test substances) • the safener is applied together with the test substance as a tank mix (the amount of safener is stated in g/ha or as a ratio, based on the herbicide).
By comparing the effect of test substances on crop plants without or with safener treatment, it is possible to assess the effect of the safener substance.

Meloidogyne incognita = test: Meloidogyne test (Example A); conditions: 20 ppm active compound; nematicidal action by formation of galls on lettuce roots; 100% = no galls
Protocol: • Solvent: 7 parts by weight of dimethylformamide • Emulsifier: 2 parts by weight of alkylaryl polyglycol ether
To produce a suitable preparation of active compound, 1 part by weight of active compound is mixed with the stated amounts of solvent and emulsifier, and the concentrate is diluted with water to the desired concentration.
Containers are filled with sand, solution of active compound, Meloidogyne incognita egg/larvae suspension and lettuce seeds. The lettuce seeds germinate and the plants develop. On the roots, galls are formed.
After the desired period of time, the nematicidal action is determined in % by the formation of galls. 100% means that no galls were found; 0% means that the number of galls on the treated plants corresponds to that of the untreated control.

Row | SMILES | Kill rate in % after 5d [1] | herbicidal effect, Echinochloea ([2]; Echinochloea) | herbicidal effect, Setaria ([2]; Setaria) | herbicidal effect, Sorghum ([2]; Sorghum) | herbicidal effect, Soybeans ([2]; Soybeans) | herbicidal effect, Wheat ([2]; Wheat) | herbicidal effect, Alopecurus ([3]; Alopecurus) | herbicidal effect, Digitaria ([3]; Digitaria) | herbicidal effect, Lolium ([3]; Lolium) | herbicidal effect, Setaria ([3]; Setaria) | herbicidal effect, Sugarbeets ([3]; Sugarbeets) | Summer barley observed (%) ([4]; 25 g of a.i./ha) | Summer wheat observed (%) ([4]; 25 g of a.i./ha) | Summer barley observed (%) ([4]; 50 g of a.i./ha) | Summer wheat observed (%) ([4]; 50 g of a.i./ha) | Summer barley observed (%) ([4]; 100 g of a.i./ha) | Summer wheat observed (%) ([4]; 100 g of a.i./ha) | Effect in % after 14d (Meloidogyne incognita)
1 | Cc1cc(-c2ccc(Cl)cc2)cc(C)c1C1(Cl)C(=O)N2CCOCCN2C1=O [Ex. I-4-1] | 90% | 70% | 80% | 70% | 0% | 0% | 80% | 100% | 80% | 100% | 10% | 40% | 60% | 95% | 97% | 97% | 97% | –
2 | Cc1cc(-c2ccc(Cl)cc2)cc(C)c1C1(Cl)C(=O)N2CCCCN2C1=O [Ex. I-3-1] | – | – | – | – | – | – | – | – | – | – | – | – | – | 80% | 60% | 80% | 60% | 100%
